GI50 and IC50 data for 29 compounds are collected here from patent US12161642B2, “Ferrochelatase inhibitors and methods of use” (INDIANA UNIVERSITY RESEARCH AND TECHNOLOGY CORPORATION, priority 2018, dated 2024).

A value given as a limit tells only on which side of the number the result lay.

One test relates to HRECs. Kind of test: HREC proliferation assay (alamarBlue), GI50 determination. It counts as cell-based, human. The settings on record: proliferation of HRECs. The protocol: Human retinal microvascular endothelial cells (HRECs) were cultured in EGM-2 medium (Lonza). Cells (2500/well) in EGM-2 medium were plated in 48 wells in the center of a 96-well black with clear bottom TC treated plate are allowed to attach overnight. The cells were treated with compounds such that final assay concentrations were 100 μM, 30 μM, 10 μM, 3 μM, 1 μM, 100 nM, and 10 nM with DMSO control (1% final DMSO concentration). Cells were allowed to proliferate for 44 hours prior to addition of alamarBlue. The alamarBlue reagent is a flurorometric/colorimetric redox reagent that is reduced in the presence of growing cells. The assay was completed with a read of fluorescence at excitation of 560 nm and emission of 590 nm. GI50 values were determined using GraphPad Prism software.
Background: Alamar Blue is a resazurin reagent that responds to reducing activity.

The target of a further test is recombinant human FECH (Homo sapiens (Human), UniProt P22830). Kind of test: FECH enzymatic activity assay (Ni2+ mesoporphyrin IX formation, absorbance at 550 nm). Type of test: biochemical. The settings on record: recombinant FECH; read-out: FECH IC50. The protocol: The human FECH expression plasmid pHDTF20 was obtained in E. coli cells from the Dailey Lab (University of Georgia). The cells were grown in Circlegrow medium (MP Biomedicals, LLC #3000-122) with ampicillin for 20 hours. Cells were harvested, lysed in a Tris-MOPS buffer and purified by immobilized metal affinity chromatography using HisPur Cobalt resin (Thermo Fisher #89965).
recombinant human FECH, sequence (P22830 55-423): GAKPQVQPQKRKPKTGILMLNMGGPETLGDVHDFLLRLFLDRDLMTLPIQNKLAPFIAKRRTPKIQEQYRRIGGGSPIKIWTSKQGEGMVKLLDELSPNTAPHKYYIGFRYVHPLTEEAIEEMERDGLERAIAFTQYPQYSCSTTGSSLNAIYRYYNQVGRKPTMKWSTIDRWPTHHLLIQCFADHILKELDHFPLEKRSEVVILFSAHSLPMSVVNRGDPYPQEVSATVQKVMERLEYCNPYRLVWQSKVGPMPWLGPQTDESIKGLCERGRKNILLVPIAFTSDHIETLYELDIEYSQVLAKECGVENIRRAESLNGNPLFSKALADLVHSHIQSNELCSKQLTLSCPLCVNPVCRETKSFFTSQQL
The activity assay buffer was 100 mM Tris-HCl pH 8.0 with 0.05% octyl glucoside detergent. Assay reagents included 100 μM NiCl (Sigma #339350), 0.75 μM FECH enzyme and 100 μM mesoporphyrin (Sigma #258806) prepared in ammonium hydroxide (Santa Cruz #sc-214535).
The kinetic assay was optimized for a 384-well format. For the 384-well assay, each well contained a 50 μL reaction with 40 μL buffer, 5 μL mesoporphyrin solution, 5 μL NiCl and FECH solution. […] This time point was used for the chemical screen.
A mixture of assay buffer, NiCl and FECH enzyme (15 μL) was added to all wells on the assay plate using a MulitFlo dispenser. To start the reaction, 15 μL of a 333 μM mesoporphyrin solution in assay buffer was added to the plate, the plate spun down and the absorbance at OD=550 nm immediately read to establish a read at time 0. Plates were read for absorbance at OD=550 nm again at t=20 minutes and the activity was expressed as the change in the absorbance over the 20 minute reaction.
Compounds, reordered from ChemDiv or synthesized as described above, were made to 10 mM in DMSO and tested in the FECH enzymatic assay at final concentrations of […] 100 μM (1% final DMSO concentration). IC50 values for the compounds were determined using GraphPad Prism software.
A kinetic assay to monitor FECH enzymatic activity was adapted from a published protocol (Burden et a., Biochim Biophys Acta 1435, 191-197 (1999)).

In the test with HRECs (Homo sapiens, HREC, 44 h), `CC(C)(C)c1ccc(-c2n[nH]c(N)n2)cc1` [Example 1, 3-(4-(tert-butyl)phenyl)-1H-1,2,4-triazol-5-amine] had a GI50 of more than 100 µM. Further, the IC50 at recombinant human FECH is more than 100 µM.

In the test with HRECs (Homo sapiens, HREC, 44 h), `Cc1cc(=O)n2nc(-c3ccc(C(C)(C)C)cc3)nc2[nH]1` [Example 2, 2-(4-(tert-butyl)phenyl)-5-methyl-[1,2,4]triazolo[1,5-a]pyrimidin-7(4H)-one] displayed a GI50 of more than 100 µM. Moreover, the IC50 on recombinant human FECH was more than 100 µM. The compound `CC(C)(C)c1ccc(-c2nc3[nH]c(CCl)cc(=O)n3n2)cc1` [Example 3, 2-(4-(tert-butyl)phenyl)-5-(chloromethyl)-[1,2,4]triazolo[1,5-a]pyrimidin-7(4H)-one] came in with a GI50 in the test with HRECs (Homo sapiens, HREC, 44 h) of more than 100 µM. The IC50 on recombinant human FECH is more than 100 µM. In the test with HRECs (Homo sapiens, HREC, 44 h), `CN(Cc1ccccc1)Cc1cc(=O)n2nc(-c3ccc(C(C)(C)C)cc3)nc2[nH]1` [Example 4a, 5-((benzyl(methyl)amino)methyl)-2-(4-(tert-butyl)phenyl)-[1,2,4]triazolo[1,5-a]pyrimidin-7(4H)-one] showed a GI50 of more than 100 µM. Also, the IC50 on recombinant human FECH is more than 100 µM. In turn, `CC(C)(C)c1ccc(-c2nc3[nH]c(CNc4ccnn4-c4ccccc4)cc(=O)n3n2)cc1` [Example 4b, 2-(4-(tert-butyl)phenyl)-5-(((1-phenyl-1H-pyrazol-5-yl)amino)methyl)-[1,2,4]triazolo[1,5-a]pyrimidin-7(4H)-one] returned a GI50 in the test on HRECs (Homo sapiens, HREC, 44 h) of more than 100 µM. At recombinant human FECH, the IC50 is more than 100 µM. With `CC(C)(C)c1ccc(-c2nc3[nH]c(CNCCc4ccccc4)cc(=O)n3n2)cc1` [Example 4c, 2-(4-(tert-butyl)phenyl)-5-((phenethylamino)methyl)-[1,2,4]triazolo[1,5-a]pyrimidin-7(4H)-one], in the test with HRECs (Homo sapiens, HREC, 44 h), the GI50 is more than 100 µM. The IC50 at recombinant human FECH is more than 100 µM. In the test with HRECs (Homo sapiens, HREC, 44 h), `CC(C)(C)c1ccc(-c2nc3[nH]c(CNc4cnccn4)cc(=O)n3n2)cc1` [Example 4d, 2-(4-(tert-butyl)phenyl)-5-((pyrazin-2-ylamino)methyl)-[1,2,4]triazolo[1,5-a]pyrimidin-7(4H)-one] registered a GI50 of more than 100 µM. The IC50 at recombinant human FECH is more than 100 µM. As to `CC(C)(C)c1ccc(-c2nc3[nH]c(CNC4CCCC4)cc(=O)n3n2)cc1` [Example 4f, 2-(4-(tert-butyl)phenyl)-5-((cyclopentylamino)methyl)-[1,2,4]triazolo[1,5-a]pyrimidin-7(4H)-one], the GI50 in the test on HRECs (Homo sapiens, HREC, 44 h) was more than 100 µM. Moreover, the IC50 on recombinant human FECH is more than 100 µM.

For the compound `CCN(CC)Cc1cc(=O)n2nc(-c3ccc(C(C)(C)C)cc3)nc2[nH]1` [Example 4g, 2-(4-(tert-butyl)phenyl)-5-((diethylamino)methyl)-[1,2,4]triazolo[1,5-a]pyrimidin-7(4H)-one], the GI50 with HRECs (Homo sapiens, HREC, 44 h) is more than 100 µM. Besides, the IC50 on recombinant human FECH is more than 100 µM. For `CCCc1cc(=O)n2nc(CNc3cccc(C)c3)nc2[nH]1` [Example 5b, 5-propyl-2-((m-tolylamino)methyl)-[1,2,4]triazolo[1,5-a]pyrimidin-7(4H)-one], in the test on HRECs (Homo sapiens, HREC, 44 h), the GI50 was more than 100 µM. In addition, the IC50 at recombinant human FECH worked out at 0.508 µM. In the same order, the values of `CCCc1cc(=O)n2nc(CNc3cccc(Cl)c3)nc2[nH]1` [Example 5e, 2-(((3-chlorophenyl)amino)methyl)-5-propyl-[1,2,4]triazolo[1,5-a]pyrimidin-7(4H)-one] are more than 100 µM and 0.346 µM.

Take `CCCc1cc(=O)n2nc(CNc3ccc(Cl)cc3)nc2[nH]1` [Example 5f, 2-(((4-chlorophenyl)amino)methyl)-5-propyl-[1,2,4]triazolo[1,5-a]pyrimidin-7(4H)-one]: in the test with HRECs (44 hours), the GI50 was more than 100 µM. The IC50 at recombinant human FECH worked out at 0.0916 µM. On to `CCCc1cc(=O)n2nc(CNc3ccccc3-c3ccccc3)nc2[nH]1` [Example 5g, 2-(([1,1′-biphenyl]-2-ylamino)methyl)-5-propyl-[1,2,4]triazolo[1,5-a]pyrimidin-7(4H)-one], for which, in the test with HRECs (Homo sapiens, HREC, 44 h), the GI50 was more than 100 µM. Further, the half-inhibitory concentration (IC50) on recombinant human FECH is 27.3 µM. In the same order, the values of `CCCc1cc(=O)n2nc(CNc3ccc(F)c(Cl)c3)nc2[nH]1` [Example 5i, 2-(((3-chloro-4-fluorophenyl)amino)methyl)-5-propyl-[1,2,4]triazolo[1,5-a]pyrimidin-7(4H)-one] are more than 100 µM and 0.0336 µM. For `CCCc1cc(=O)n2nc(CNc3ccc(CC)cc3)nc2[nH]1` [Example 5j, 2-(((4-ethylphenyl)amino)methyl)-5-propyl-[1,2,4]triazolo[1,5-a]pyrimidin-7(4H)-one] the same measures were more than 100 µM and 10.6 µM. In the same order, the values of `CCCc1cc(=O)n2nc(CNc3ccc(F)c(F)c3)nc2[nH]1` [Example 5k, 2-(((3,4-difluorophenyl)amino)methyl)-5-propyl-[1,2,4]triazolo[1,5-a]pyrimidin-7(4H)-one] are more than 100 µM and 0.0429 µM. Take `CCCCCOc1ccc(NCc2nc3[nH]c(CCC)cc(=O)n3n2)cc1` [Example 5l, 2-(((4-(pentyloxy)phenyl)amino)methyl)-5-propyl-[1,2,4]triazolo[1,5-a]pyrimidin-7(4H)-one]: the GI50 in the test with HRECs (Homo sapiens, HREC, 44 h) was more than 100 µM. Besides, the IC50 at recombinant human FECH stood at 78 µM. In the same order, the values of `CCCc1cc(=O)n2nc(CNc3ccc(F)cc3)nc2[nH]1` [Example 5m, 2-(((4-fluorophenyl)amino)methyl)-5-propyl-[1,2,4]triazolo[1,5-a]pyrimidin-7(4H)-one] are more than 100 µM and 0.525 µM.

The compound `CCCc1cc(=O)n2nc(CNc3ccc(OC(F)(F)F)cc3)nc2[nH]1` [Example 5n, 5-propyl-2-(((4-(trifluoromethoxy)phenyl)amino)methyl)-[1,2,4]triazolo[1,5-a]pyrimidin-7(4H)-one] showed a GI50 in the test with HRECs (Homo sapiens, HREC, 44 h) of more than 100 µM. Moreover, the IC50 at recombinant human FECH turned out to be 34.1 µM. In the same order, the values of `Cc1ccccc1NCc1nc2[nH]c3c(c(=O)n2n1)CCC3` [Example 5o, 2-((o-tolylamino)methyl)-4,5,6,7-tetrahydro-8H-cyclopenta[d][1,2,4]triazolo[1,5-a]pyrimidin-8-one] are more than 100 µM and more than 100 µM.

For the compound `Cc1cccc(NCc2nc3[nH]c4c(c(=O)n3n2)CCC4)c1` [Example 5p, 2-((m-tolylamino)methyl)-4,5,6,7-tetrahydro-8H-cyclopenta[d][1,2,4]triazolo[1,5-a]pyrimidin-8-one], the GI50 in the test on HRECs (Homo sapiens, HREC, 44 h) was more than 100 µM. Moreover, the IC50 at recombinant human FECH is 9.34 µM. In the same order, the values of `Cc1ccc(NCc2nc3[nH]c4c(c(=O)n3n2)CCC4)cc1` [Example 5q, 2-((p-tolylamino)methyl)-4,5,6,7-tetrahydro-8H-cyclopenta[d][1,2,4]triazolo[,5-a]pyrimidin-8-one] are more than 100 µM and 3.62 µM. In the same order, the values of `Cc1ccccc1NCc1nc2[nH]c(C(C)C)cc(=O)n2n1` [Example 5r, 5-isopropyl-2-((o-tolylamino)methyl)-[1,2,4]triazolo[1,5-a]pyrimidin-7(4H)-one] are more than 100 µM and 17.9 µM. In turn, `Cc1cccc(NCc2nc3[nH]c(C(C)C)cc(=O)n3n2)c1` [Example 5s, 5-isopropyl-2-((m-tolylamino)methyl)-[1,2,4]triazolo[1,5-a]pyrimidin-7(4H)-one] yielded a GI50 in the test with HRECs (Homo sapiens, HREC, 44 h) of more than 100 µM. Besides, the IC50 on recombinant human FECH turned out to be 28.1 µM. For `Cc1ccc(NCc2nc3[nH]c(C(C)C)cc(=O)n3n2)cc1` [Example 5t, 5-isopropyl-2-((p-tolylamino)methyl)-[1,2,4]triazolo[1,5-a]pyrimidin-7(4H)-one] the same measures were more than 100 µM and 16.8 µM. For `Cc1cc(=O)n2nc(CNc3ccccc3C)nc2[nH]1` [Example 5u, 5-methyl-2-((o-tolylamino)methyl)-[1,2,4]triazolo[1,5-a]pyrimidin-7(4H)-one] the same measures were more than 100 µM and 77.2 µM. In the same order, the values of `Cc1cccc(NCc2nc3[nH]c(C)cc(=O)n3n2)c1` [Example 5v, 5-methyl-2-((m-tolylamino)methyl)-[1,2,4]triazolo[1,5-a]pyrimidin-7(4H)-one] are more than 100 µM and 18.7 µM.

In the case of `COc1cccc(NCc2cc(=O)n3nc(-c4ccc(C(C)(C)C)cc4)nc3[nH]2)c1` [Example D351-0319], the GI50 with HRECs (Homo sapiens, HREC, 44 h) is more than 100 µM.

As to `Cc1c(Cl)cccc1NCc1nc2[nH]c(C(C)C)cc(=O)n2n1` [Example D433-1800], on recombinant human FECH, the IC50 was determined as 0.751 µM.

Broadly, the GI50 is the concentration at which growth is held to half of that of the control. Lower therefore signals greater sensitivity of the cells. As a reminder, the IC50 is the concentration needed to halve the response being measured.
